In EP0565897B1, “Argatroban preparations for ophthalmic use” (priority 1992, dated 1993):

Key:
[1] = test system: fibrin formation in the rabbit anterior chamber; test: Fibrin formation in the anterior chamber caused by laser irradiation (slit lamp microscope); assay type: in vivo, pigmented rabbits; settings: 0.1 mg/kg/minute intravenously, 30 minutes after the irradiation
Description: In this example, a model of fibrin formation in the rabbit anterior chamber caused by laser irradiation was used as a measure for testing the action of argatroban. In this model, the seriousness of inflammation and amount of fibrin are determined proportional to the total energy of the laser irradiation. The amount of fibrin can be controled to the desired value by altering total energy of laser irradiation.
(§1) Matured pigmented rabbits (Dutch rabbits of 2 kg body weight) were irradiated with laser at the iris using an argon laser equipment (product of NIDEK). In one group of the rabbits on the eyes, 8 irradiation points at the same interval on a circle line were made under the conditions of coagulation size of 50 micrometer, output of 1.0 Watt and irradiation time of 0.1 second (condition A). In other group of the rabbits, 8 irradiation points similar to those on the eyes were made under the conditions of coagulation size of 200 micrometer, output of 1.0 Watt and irradiation time of 0.2 second (condition B).
From 30 minutes prior to and until 30 minutes after irradiations, 0.1 mg/kg/minute of argatroban was administered intravenously from ear vein. Control group received only laser irradiation. Positive control group received 1000 U/kg of heparin intravenously 30 minutes prior to laser irradiation. […]
The fibrin formation was recorded photographically using a slit lamp microscope.

[2] = test system: flare increase in the anterior chamber; test: Anterior chamber flare after argon laser irradiation (flare cell meter); assay type: in vivo, pigmented rabbits; settings: condition B
From the text: as §1
From 30 minutes prior to and until 30 minutes after irradiations, 0.1 mg/kg/minute of argatroban was administered intravenously from ear vein. Control group received only laser irradiation. Positive control group received 1000 U/kg of heparin intravenously 30 minutes prior to laser irradiation.
For argatroban eye drop, right eyes of the rabbits received 5 mg/ml solution of argatroban, while left eyes were used as a control without application of argatroban.
Further, the laser irradiation of condition B was effected and then the anterior chamber flare values were estimated using the flare cell meter at 30 minutes and 60 minutes after the irradiation.
The flare cell meter measures turbidity in the anterior chamber as the photon count. […]

[3] = test system: fibrin formation in the anterior chamber; test: Fibrin formation by administering self-plasma to the anterior chamber; assay type: in vivo, white rabbits; settings: 150 microliter plasma and 50 microliter argatroban solution (10 mg/ml) injected to the anterior chamber; 24 hours after the administration
Description: Blood of matured white rabbits (2 kg in body weight) were taken and separated to give plasma. Two hundreds microliter of anterior chamber liquid was taken by conducting centesis into anterior chamber of the same rabbit. Then, 150 microliter of the plasma obained and 50 microliter of argatroban solution (10 mg/ml), 200 microliter in total, were injected to the anterior chamber from the same centesis portion. The control received 150 microliter of plasma and 50 microliter of physiological saline in the same manner at the anterior chamber. The fibrin formation in the anterior chamber 24 hours after the administration was observed and recorded.

[4] = LD50 (acute toxicity), mouse; settings: in vivo
From the text: (§2) In the following Table 2, the toxicological data of argatroban is shown.

[5] = LD50 (acute toxicity), rat; settings: in vivo
From the text: as §2

[6] = LD50 (acute toxicity), dog; assay type: in vivo; settings: in vivo, iv, Male, i. v.
From the text: as §2

dog = test: LD50 (acute toxicity), dog; assay type: in vivo; settings: Female, i. v.
From the text: as §2

For `CC1CNc2c(cccc2S(=O)(=O)N[C@@H](CCCNC(=N)N)C(=O)N2CC[C@@H](C)C[C@@H]2C(=O)O)C1.O` (mixture of isomers) [argatroban, (2R,4R)-4-methyl-1-[N^2-((RS)-3-methyl-1,2,3,4-tetrahydro-8-quinolinesulfonyl)-L-arginyl]-2-piperidinecarboxylic acid hydrate], the fibrin formation ([1]; condition A) was “no fibrin formation was also observed”, the fibrin formation ([1]; condition B) was “no fibrin formation was also observed” and the “photon count (/msec)” value ([2]; eye drop, solution of 5 mg/ml, 30 minutes after laser irradiation) was 287.7 ± 99.2 (n=4) /msec. The “photon count (/msec)” value ([2]; eye drop, solution of 5 mg/ml, 60 minutes after laser irradiation) was 341.2 ± 86.5 (n=4) /msec, the “photon count (/msec)” value ([2]; intravenous injection at 0.1 mg/kg/min, 30 minutes after laser irradiation) was 417.7 ± 159.3 (n=4) /msec and the “photon count (/msec)” value ([2]; intravenous injection at 0.1 mg/kg/min, 60 minutes after laser irradiation) was 356.9 ± 168.3 (n=4) /msec. The fibrin formation [3] was “No fibrin formation was observed”, the LD50 ([4]; ip, Female, i. p.) was 640 mg/kg and the LD50 ([4]; ip, Male, i. p.) was 475 mg/kg. For the same compound, the LD50 ([4]; iv, Female, i. v.) was > 81 mg/kg, the LD50 ([4]; iv, Male, i. v.) was > 81 mg/kg and the LD50 ([4]; po, Female, p. o.) was > 15000 mg/kg. For the same compound, the LD50 ([4]; po, Male, p. o.) was > 15000 mg/kg, the LD50 ([4]; sc, Female, subc.) was 3900 mg/kg and the LD50 ([4]; sc, Male, subc.) was 3750 mg/kg. For the same compound, the LD50 ([5]; ip, Female, i. p.) was 409 mg/kg, the LD50 ([5]; ip, Male, i. p.) was 320 mg/kg and the LD50 ([5]; iv, Female, i. v.) was > 81 mg/kg. The LD50 ([5]; iv, Male, i. v.) was > 81 mg/kg, the LD50 ([5]; po, Female, p. o.) was > 15000 mg/kg and the LD50 ([5]; po, Male, p. o.) was > 15000 mg/kg. For the same compound, the LD50 ([5]; sc, Female, subc.) was 620 mg/kg, the LD50 ([5]; sc, Male, subc.) was 700 mg/kg and the LD50 [6] was > 200 mg/kg. The LD50 (dog) was > 200 mg/kg.
